Reference: US20230002367A1, “BIFUNCTIONAL COMPOUNDS” (Hoffmann-La Roche Inc., priority 2019, published 2023)

Biological target: T1, SMARCA2 (Homo sapiens, UniProt P51531)
T1 construct: endogenous in cells
Assay: SMARCA2 HiBiT degradation assay (cellular)
Assay type: cell-based
Details: for Emax: A549, Emax = amount of residual protein remaining in the cell following compound treatment; for DC50: SMARCA2 HiBiT cells, luminescence readout, 11-point titration from 10 μM, 6 hours or 16 hours, read-out: HiBit A549 SMARCA2 IP

T1 sequence (P51531 whole entry): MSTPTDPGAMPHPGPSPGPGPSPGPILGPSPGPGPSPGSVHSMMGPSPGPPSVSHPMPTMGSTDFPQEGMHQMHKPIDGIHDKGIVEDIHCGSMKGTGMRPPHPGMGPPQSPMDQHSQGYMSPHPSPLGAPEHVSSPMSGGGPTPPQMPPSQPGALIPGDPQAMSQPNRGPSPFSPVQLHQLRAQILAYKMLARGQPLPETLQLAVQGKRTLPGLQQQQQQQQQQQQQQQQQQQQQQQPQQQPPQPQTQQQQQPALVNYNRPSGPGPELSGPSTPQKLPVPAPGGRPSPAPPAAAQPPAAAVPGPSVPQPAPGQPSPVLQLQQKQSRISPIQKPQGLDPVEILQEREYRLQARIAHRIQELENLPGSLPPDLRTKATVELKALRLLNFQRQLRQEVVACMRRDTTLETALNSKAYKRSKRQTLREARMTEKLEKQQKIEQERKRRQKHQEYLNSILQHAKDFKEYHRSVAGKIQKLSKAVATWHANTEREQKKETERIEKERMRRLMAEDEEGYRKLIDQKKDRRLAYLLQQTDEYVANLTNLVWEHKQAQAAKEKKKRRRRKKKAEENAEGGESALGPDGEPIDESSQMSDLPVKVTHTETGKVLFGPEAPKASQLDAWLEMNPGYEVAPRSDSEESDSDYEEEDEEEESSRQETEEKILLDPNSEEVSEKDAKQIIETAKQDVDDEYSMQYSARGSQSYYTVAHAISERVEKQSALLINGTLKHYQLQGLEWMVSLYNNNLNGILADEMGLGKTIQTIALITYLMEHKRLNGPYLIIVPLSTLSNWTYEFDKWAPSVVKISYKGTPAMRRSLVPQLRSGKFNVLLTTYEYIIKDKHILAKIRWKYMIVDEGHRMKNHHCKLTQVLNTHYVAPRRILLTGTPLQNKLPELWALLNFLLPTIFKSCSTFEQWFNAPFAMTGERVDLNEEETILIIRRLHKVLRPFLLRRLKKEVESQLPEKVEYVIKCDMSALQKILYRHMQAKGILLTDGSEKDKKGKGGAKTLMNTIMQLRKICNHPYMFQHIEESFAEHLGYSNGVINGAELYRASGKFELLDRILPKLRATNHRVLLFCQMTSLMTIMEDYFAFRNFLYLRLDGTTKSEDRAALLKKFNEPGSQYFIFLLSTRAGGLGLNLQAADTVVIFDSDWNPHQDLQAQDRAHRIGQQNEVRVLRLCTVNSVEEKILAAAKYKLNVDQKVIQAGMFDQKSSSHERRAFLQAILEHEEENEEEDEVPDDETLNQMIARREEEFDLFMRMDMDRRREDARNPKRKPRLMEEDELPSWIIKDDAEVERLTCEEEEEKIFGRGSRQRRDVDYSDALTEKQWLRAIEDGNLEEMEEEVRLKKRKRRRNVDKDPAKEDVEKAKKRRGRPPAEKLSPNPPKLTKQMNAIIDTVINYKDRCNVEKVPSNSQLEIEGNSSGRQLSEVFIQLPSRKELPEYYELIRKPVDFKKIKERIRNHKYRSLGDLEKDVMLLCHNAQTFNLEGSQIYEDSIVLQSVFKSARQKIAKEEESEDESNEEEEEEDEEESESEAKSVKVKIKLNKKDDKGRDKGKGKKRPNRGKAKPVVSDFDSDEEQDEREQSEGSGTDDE

Row | SMILES | Emax [%] | DC50 [nM]
1 | Cc1ncsc1-c1ccc(CNC(=O)[C@@H]2C[C@@H](O)CN2C(=O)[C@@H](NC(=O)CCCCCCCC(=O)N2CCN(Cc3cccc(N4C5CCC4CN(c4cc(-c6ccccc6O)nnc4N)C5)c3)CC2)C(C)(C)C)cc1 [Example 3, (2S,4R)-1-[(2S)-2-[[9-[4-[[3-[3-[3-amino-6-(2-hydroxyphenyl)pyridazin-4-yl]-3,8-diazabicyclo[3.2.1]octan-8-yl]phenyl]methyl]piperazin-1-yl]-9-oxo-nonanoyl]amino]-3,3-dimethyl-butanoyl]-4-hydroxy-N-[[4-(4-methylthiazol-5-yl)phenyl]methyl]pyrrolidine-2-carboxamide] | 51 | 479
2 | Cc1ncsc1-c1ccc(CNC(=O)[C@@H]2C[C@@H](O)CN2C(=O)[C@@H](NC(=O)CCCCCCCCC(=O)N2CCN(c3cc(-c4ccccc4O)nnc3N)CC2C)C(C)(C)C)cc1 (stereo partly drawn) [Example 4, (2S,4R)-1-[(2S)-2-[[10-[4-[3-amino-6-(2-hydroxyphenyl)pyridazin-4-yl]-2-methyl-piperazin-1-yl]-10-oxo-decanoyl]amino]-3,3-dimethyl-butanoyl]-4-hydroxy-N-[[4-(4-methylthiazol-5-yl)phenyl]methyl]pyrrolidine-2-carboxamide] | 36 | 2930
3 | Cc1ncsc1-c1ccc(CNC(=O)[C@@H]2C[C@@H](O)CN2C(=O)[C@@H](NC(=O)CCCCCCCCC(=O)N2C3CCC2CN(c2cc(-c4ccccc4O)nnc2N)C3)C(C)(C)C)cc1 [Example 5, (2S,4R)-1-[(2S)-2-[[10-[3-[3-amino-6-(2-hydroxyphenyl)pyridazin-4-yl]-3,8-diazabicyclo[3.2.1]octan-8-yl]-10-oxo-decanoyl]amino]-3,3-dimethyl-butanoyl]-4-hydroxy-N-[[4-(4-methylthiazol-5-yl)phenyl]methyl]pyrrolidine-2-carboxamide] | 31 | 2510
4 | Cc1ncsc1-c1ccc(CNC(=O)[C@@H]2C[C@@H](O)CN2C(=O)[C@@H](NC(=O)CCCCCCCCCC(=O)N2CCN(Cc3cccc(N4C5CCC4CN(c4cc(-c6ccccc6O)nnc4N)C5)c3)CC2)C(C)(C)C)cc1 [Example 7, (2S,4R)-1-[(2S)-2-[[11-[4-[[3-[3-[3-amino-6-(2-hydroxyphenyl)pyridazin-4-yl]-3,8-diazabicyclo[3.2.1]octan-8-yl]phenyl]methyl]piperazin-1-yl]-11-oxo-undecanoyl]amino]-3,3-dimethyl-butanoyl]-4-hydroxy-N-[[4-(4-methylthiazol-5-yl)phenyl]methyl]pyrrolidine-2-carboxamide] | 39 | 357
5 | Cc1ncsc1-c1ccc(CNC(=O)[C@@H]2C[C@@H](O)CN2C(=O)[C@H](NC(=O)CCCCCCC(=O)N2CCN(CCOc3cccc(N4C5CCC4CN(c4cc(-c6ccccc6O)nnc4N)C5)c3)CC2)C(C)(C)C)cc1 [Example 8, (2S,4R)-1-[(2R)-2-[[8-[4-[2-[3-[3-[3-amino-6-(2-hydroxyphenyl)pyridazin-4-yl]-3,8-diazabicyclo[3.2.1]octan-8-yl]phenoxy]ethyl]piperazin-1-yl]-8-oxo-octanoyl]amino]-3,3-dimethyl-butanoyl]-4-hydroxy-N-[[4-(4-methylthiazol-5-yl)phenyl]methyl]pyrrolidine-2-carboxamide] | 48 | 610
6 | Cc1ncsc1-c1ccc(CNC(=O)[C@@H]2C[C@@H](O)CN2C(=O)[C@H](NC(=O)CCCCCC(=O)N2CCN(CCOc3cccc(N4C5CCC4CN(c4cc(-c6ccccc6O)nnc4N)C5)c3)CC2)C(C)(C)C)cc1 [Example 9, (2S,4R)-1-[(2R)-2-[[7-[4-[2-[3-[3-[3-amino-6-(2-hydroxyphenyl)pyridazin-4-yl]-3,8-diazabicyclo[3.2.1]octan-8-yl]phenoxy]ethyl]piperazin-1-yl]-7-oxo-heptanoyl]amino]-3,3-dimethyl-butanoyl]-4-hydroxy-N-[[4-(4-methylthiazol-5-yl)phenyl]methyl]pyrrolidine-2-carboxamide] | 58 | 733
7 | Cc1ncsc1-c1ccc(CNC(=O)[C@@H]2C[C@@H](O)CN2C(=O)[C@@H](NC(=O)CCCCCCCCC(=O)N2CCN(CCOc3cccc(N4C5CCC4CN(c4cc(-c6ccccc6O)nnc4N)C5)c3)CC2)C(C)(C)C)cc1 [Example 10, (2S,4R)-1-[(2S)-2-[[10-[4-[2-[3-[3-[3-amino-6-(2-hydroxyphenyl)pyridazin-4-yl]-3,8-diazabicyclo[3.2.1]octan-8-yl]phenoxy]ethyl]piperazin-1-yl]-10-oxo-decanoyl]amino]-3,3-dimethyl-butanoyl]-4-hydroxy-N-[[4-(4-methylthiazol-5-yl)phenyl]methyl]pyrrolidine-2-carboxamide] | 19 | 286
8 | Cc1ncsc1-c1ccc(CNC(=O)[C@@H]2C[C@@H](O)CN2C(=O)[C@@H](NC(=O)CCCCCCCCCC(=O)N2CCN(CCOc3cccc(N4C5CCC4CN(c4cc(-c6ccccc6O)nnc4N)C5)c3)CC2)C(C)(C)C)cc1 [Example 11, (2S,4R)-1-[(2S)-2-[[11-[4-[2-[3-[3-[3-amino-6-(2-hydroxyphenyl)pyridazin-4-yl]-3,8-diazabicyclo[3.2.1]octan-8-yl]phenoxy]ethyl]piperazin-1-yl]-11-oxo-undecanoyl]amino]-3,3-dimethyl-butanoyl]-4-hydroxy-N-[[4-(4-methylthiazol-5-yl)phenyl]methyl]pyrrolidine-2-carboxamide] | 20 | 104
9 | Cc1ncsc1-c1ccc(CNC(=O)[C@@H]2C[C@@H](O)CN2C(=O)[C@@H](NC(=O)CCCCCCCCC(=O)N2CCOC3(CCN(c4cc(-c5ccccc5O)nnc4N)CC3)C2)C(C)(C)C)cc1 [Example 12, (2S,4R)-1-[(2S)-2-[[10-[9-[3-amino-6-(2-hydroxyphenyl)pyridazin-4-yl]-1-oxa-4,9-diazaspiro[5.5]undecan-4-yl]-10-oxo-decanoyl]amino]-3,3-dimethyl-butanoyl]-4-hydroxy-N-[[4-(4-methylthiazol-5-yl)phenyl]methyl]pyrrolidine-2-carboxamide] | 43 | 2460
10 | Cc1ncsc1-c1ccc(CNC(=O)[C@@H]2C[C@H](O)CN2C(=O)[C@@H](NC(=O)CCCCCCCC(=O)N2CCC(Cc3cccc(N4C5CCC4CN(c4cc(-c6ccccc6O)nnc4N)C5)c3)CC2)C(C)(C)C)cc1 [Example 13, (2S,4S)-1-[(2S)-2-[[9-[4-[[3-[3-[3-amino-6-(2-hydroxyphenyl)pyridazin-4-yl]-3,8-diazabicyclo[3.2.1]octan-8-yl]phenyl]methyl]-1-piperidyl]-9-oxo-nonanoyl]amino]-3,3-dimethyl-butanoyl]-4-hydroxy-N-[[4-(4-methylthiazol-5-yl)phenyl]methyl]pyrrolidine-2-carboxamide] | 28 | 954
11 | Cc1ncsc1-c1ccc(CNC(=O)[C@@H]2C[C@H](O)CN2C(=O)[C@@H](NC(=O)CCCCCC(=O)N2CCC(Cc3cccc(N4C5CCC4CN(c4cc(-c6ccccc6O)nnc4N)C5)c3)CC2)C(C)(C)C)cc1 [Example 14, (2S,4S)-1-[(2S)-2-[[7-[4-[[3-[3-[3-amino-6-(2-hydroxyphenyl)pyridazin-4-yl]-3,8-diazabicyclo[3.2.1]octan-8-yl]phenyl]methyl]-1-piperidyl]-7-oxo-heptanoyl]amino]-3,3-dimethyl-butanoyl]-4-hydroxy-N-[[4-(4-methylthiazol-5-yl)phenyl]methyl]pyrrolidine-2-carboxamide] | 38 | 995
12 | Cc1ncsc1-c1ccc(CNC(=O)[C@@H]2C[C@H](O)CN2C(=O)[C@@H](NC(=O)CCCCCCCCCC(=O)N2CCC(Cc3cccc(N4C5CCC4CN(c4cc(-c6ccccc6O)nnc4N)C5)c3)CC2)C(C)(C)C)cc1 [Example 15, (2S,4S)-1-[(2S)-2-[[11-[4-[[3-[3-[3-amino-6-(2-hydroxyphenyl)pyridazin-4-yl]-3,8-diazabicyclo[3.2.1]octan-8-yl]phenyl]methyl]-1-piperidyl]-11-oxo-undecanoyl]amino]-3,3-dimethyl-butanoyl]-4-hydroxy-N-[[4-(4-methylthiazol-5-yl)phenyl]methyl]pyrrolidine-2-carboxamide] | 24 | 487
13 | Cc1ncsc1-c1ccc(CNC(=O)[C@@H]2C[C@@H](O)CN2C(=O)[C@@H](NC(=O)CCCCCCCCC(=O)N2CCN(c3cc(-c4ccccc4O)nnc3N)CC23CC3)C(C)(C)C)cc1 [Example 16, (2S,4R)-1-[(2S)-2-[[10-[7-[3-amino-6-(2-hydroxyphenyl)pyridazin-4-yl]-4,7-diazaspiro[2.5]octan-4-yl]-10-oxo-decanoyl]amino]-3,3-dimethyl-butanoyl]-4-hydroxy-N-[[4-(4-methylthiazol-5-yl)phenyl]methyl]pyrrolidine-2-carboxamide] | 33 | 872
14 | Cc1ncsc1-c1ccc(CNC(=O)[C@@H]2C[C@@H](O)CN2C(=O)[C@@H](NC(=O)CCCCCCCCC(=O)N2CC=C(c3cc(-c4ccccc4O)nnc3N)CC2)C(C)(C)C)cc1 [Example 17, (2S,4R)-1-[(2S)-2-[[10-[4-[3-amino-6-(2-hydroxyphenyl)pyridazin-4-yl]-3,6-dihydro-2H-pyridin-1-yl]-10-oxo-decanoyl]amino]-3,3-dimethyl-butanoyl]-4-hydroxy-N-[[4-(4-methylthiazol-5-yl)phenyl]methyl]pyrrolidine-2-carboxamide] | 50 | 2820
15 | Cc1ncsc1-c1ccc(CNC(=O)[C@@H]2C[C@@H](O)CN2C(=O)[C@@H](NC(=O)CCCCCCCCCC(=O)N2CCN(C(=O)c3cccc(CN4C5CCC4CN(c4cc(-c6ccccc6O)nnc4N)C5)c3)CC2)C(C)(C)C)cc1 [Example 18, (2S,4R)-1-[(2S)-2-[[11-[4-[3-[[3-[3-amino-6-(2-hydroxyphenyl)pyridazin-4-yl]-3,8-diazabicyclo[3.2.1]octan-8-yl]methyl]benzoyl]piperazin-1-yl]-11-oxo-undecanoyl]amino]-3,3-dimethyl-butanoyl]-4-hydroxy-N-[[4-(4-methylthiazol-5-yl)phenyl]methyl]pyrrolidine-2-carboxamide] | 63 | 848
